Like-named read-outs stand apart in the source and are kept apart here. Positions of bridges follow the written chain, without caps; N, C: chain ends. Residues, ends and D or L forms follow the SMILES beside them. *: point of attachment. X1 = O=C(O)CN1CCN(CC(=O)O)CCN(C(CCC(=O)NCc2ccc(NC(=S)*)cc2)C(=O)O)CCN(CC(=O)O)CC1
What was measured:
[1] = Determination of logP value (octanol/water partition coefficient); type: physicochemical
Procedure: The mixture was shaken with a vortex shaker for 5 min and centrifugated (9000 rpm) for 5 min. A 3 × 20 µL amount of both solvents was pipetted into a vial. The radioactivity of the fractions was determined with a gamma counter.

[2] = In vivo PET imaging of B16-F10 melanoma tumor-bearing mice; conditions: C57BL/6, mouse, in vivo, iv, total radioactivity
Procedure: (§1) For subcutaneous B16-F10 (mouse melanoma) tumor induction, C57BL/6 mice (n = 20) were anaesthetized with 3% isoflurane (Forane, AbbVie) using a dedicated small animal anesthesia device (Tec3 Isoflurane Vaporizer, Eickemeyer, UK) and mice were injected subcutaneously with 3 × 10^6 B16-F10 cells in 150 µL of sterile saline into the left shoulder area of the animals. In vivo and ex vivo experiments were carried out 10 ± 1 days after subcutaneous injection of tumor cells at the tumor volume of 80 ± 2 mm^3.
(§2) For in vivo biodistribution studies B16-F10 tumor-bearing mice were anaesthetized with 3% isoflurane and were injected with 6.6 ± 0.3 MBq [^68Ga]-11, or [^68Ga]-3, or [^68Ga]-9 or [^68Ga]-10 in 150 μL saline via the lateral tail vein 10 ± 1 days after subcutaneous injection of tumor cells. 20 min static PET scans were performed 70 min after intravenous injection of the radiotracers from the tumorous area using the preclinical miniPET-II device (University of Debrecen, Faculty of Medicine, Department of Medical Imaging, Division of Nuclear Medicine and Translational Imaging). After image reconstruction, volumes of interest (VOIs) were manually drawn around the examined regions using the BrainCAD image analysis software and quantitative standardized uptake values (SUVs) values were calculated.
(§3) Figure 1 In vivo PET imaging of [^68Ga]-11, [^68Ga]-3, [^68Ga]-9 and [^68Ga]-10 accumulation in B16-F10 tumor-bearing mice 10 ± 1 days after tumor cell inoculation and 70 min after intravenous injection of the radiotracers (A panel). Red arrows: B16-F10 tumor; black arrows: liver. (B,C) panels: quantitative SUVmean and tumor-to-background (muscle) ratio (T/M) analysis of tracer uptake in mice (n = 3/radiopharmaceutical) 70 min post-injection. Significance level: p ≤ 0.05 (*). SUV: standardized uptake value; T/M: tumor-to-muscle ratio. SUV values are presented as mean ± SD.

[3] = test system: B16-F10 melanoma tumor-bearing mice; experiment: as above; conditions: 70 min after i.v. injection; for identification of subcutaneous B16-F10 tumors on PET images: qualitative
Procedure: as §1, §2, §3

[4] = test system: B16-F10 tumor-bearing mice; conditions: ex vivo, 90 min after injection, compared to the other investigated molecules
Procedure: as §1

[5] = 1-octanol/water, gamma counter, read-out: octanol/water partition coefficient (logP)
[6] = tumor SUVmean, B16-F10 tumor, 70 min after i.v. injection, n = 3, mean ± SD

SMILES	logP [1, 5]	tissue to tissue ratio at 70 min [2]	SUV at 70 min [2, 6] [SUV]	liver SUVmean ([3]; n = 3, mean ± SD)	identification of subcutaneous B16-F10 tumors on PET images [3]	SUV at 70 min ([2]; liver SUVmean, 70 min after i.v. injection, n = 3, mean ± SD) [SUV]	radioactivity concentration in blood [4]	logP [1]	SUV at 70 min ([2]; liver SUVmean) [SUV]	SUV at 70 min ([2]; tumor SUVmean) [SUV]
N=C(N)NCCC[C@@H]1NC(=O)CNC(=O)[C@H](CC(N)=O)NC(=O)[C@H](CCCCNC(=O)CCC(=O)N2Cc3ccccc3-c3c(nnn3CCCO[C@@H]3O[C@H](CO)[C@@H](O[C@@H]4O[C@H](CO)[C@H](O)[C@H](O)[C@H]4O)[C@H](O)[C@H]3NC(=S)Nc3ccc(CNC(=O)CCC(C(=O)O)N4CCN(CC(=O)O)CCN(CC(=O)O)CCN(CC(=O)O)CC4)cc3)-c3ccccc32)NC(=O)CC[C@@H](C(N)=O)NC1=O (stereo partly shown) [[^68Ga]-9, metal not drawn]	-3.68	6.01 ± 1.24	0.11 ± 0.03	0.18 ± 0.01	clearly identified	–	–	–	–	–
N=C(N)NCCC[C@@H]1NC(=O)CNC(=O)[C@H](CC(N)=O)NC(=O)[C@H](CCCCNC(=O)CCOCCOCCOCCOCCNC(=O)CCC(=O)N2Cc3ccccc3-c3c(nnn3CCCO[C@@H]3O[C@H](CO)[C@@H](O[C@@H]4O[C@H](CO)[C@H](O)[C@H](O)[C@H]4O)[C@H](O)[C@H]3NC(=S)Nc3ccc(CNC(=O)CCC(C(=O)O)N4CCN(CC(=O)O)CCN(CC(=O)O)CCN(CC(=O)O)CC4)cc3)-c3ccccc32)NC(=O)CC[C@@H](C(N)=O)NC1=O (stereo partly shown) [[^68Ga]-10, metal not drawn]	-3.69	7.89 ± 1.31	0.15 ± 0.01	–	clearly identified	0.1 ± 0.02	higher radioactivity concentration	–	–	–
N=C(N)NCCC[C@@H]1NC(=O)CNC(=O)[C@H](CC(N)=O)NC(=O)[C@H](CCCCNC(=S)Nc2ccc(CNC(=O)CCC(C(=O)O)N3CCN(CC(=O)O)CCN(CC(=O)O)CCN(CC(=O)O)CC3)cc2)NC(=O)CC[C@@H](C(N)=O)NC1=O (stereo partly shown) [[^68Ga]-11, metal not drawn] (K(X1)NGRE-NH2; lactam N-5)	–	5.71 ± 1.17	–	–	clearly identified	–	–	-4.13	0.28 ± 0.1	0.09 ± 0.03

Source: PMC8703807, “Synthesis of ^68Ga-Labeled cNGR-Based Glycopeptides and In Vivo Evaluation by PET Imaging” (Pharmaceutics, 2021)
